Data set [1] relates to BXPC-3 pancreatic tumor cells transfected with AdCMVCD. Put plainly: MRS of 5-FC to 5-FU conversion in vitro. The format is cell-based, human. The following applies: after 120 minutes; 3.8 mM 5-FC. The method, then:
In vitro models of molecular chemotherapy were developed using the AdCMVCD cytosine deaminase toxin gene for the transfection of both human pancreatic and colon cancer cell lines (BXPC-3, WiDR, LS174T). […] In this study, an in vitro treatment model was proposed using 3×10^6 BXPC-3 pancreatic tumor cells transfected at a MOI of 100 with AdCMVCD. These cells were then examined by MRS at 0, 2, 6 and 24 hours for conversion of 5-FC to 5-FU.
Initial studies have shown the sensitivity of fluorine spectroscopy by its ability to detect 3.8 mM 5-FC when initially added to transfected BXPC-3 cells. […] However, after 120 minutes, the signal for 5-FC had dropped to 50% of its original intensity and the signal for 5-FU had increased to approximately 40% of the original 5-FC signal indicating conversion of 5-FC to 5-FU.

In data set [2] the test system is Intracranial U87MG Human Gliomas. Description: Survival, intracranial glioma, Ad, 5-FC and external beam radiation. It is filed as in vivo, athymic nude mice. The method, then: This therapeutic effect of AdCMVCD/5-FC on glioma cells could be further enhanced with concurrent fractionated ionizing external beam radiation (Table 9). U87MG cells (5×10^5) were stereotactically injected into the right frontal cortex of athymic nude mice. Tumors were established for 5 days before intratumoral injection of AdCMVCD (10^9 pfu/mouse). Mice were then treated IP with 5-FC (500 mg/kg bid) on days 2-9 post infection, irradiated with local external beam 330 cGy ^60Co radiation on days 4 and 7 post-infection, and monitored for survival. Kaplan-Meier survival curves and median and 20% survival values were calculated by standard methods.

The subject of a further data set is D54MG xenografts. Description: Subcutaneous human glioma xenograft model, tumor growth. The format is in vivo, athymic nude mice. The method, then: Treatment was started at the time of established tumor growth (Day 0 equal to 14 days after tumor cell injection). Animals were infected i.t. with 1×10^8 TCID50 AdbCDwt or AdbCD-D314A on Days 0, 7, and 14, and then irradiated with 2 Gy on Days 4, 7 and 10. 5-FC was injected i.p. at 500 mg/kg on Days 0 to 4, 7 to 11, and 14 to 18. Data points represent the mean change in tumor surface area relative to Day 0 for each group of animals.
Treatment was started at the time of established tumor growth (Day 0 equal to 17 days after tumor cell injection). Animals were infected i.t. with 1×10^8 TCID50 AdbCD-D314A on Days 0, 7, and 14, and irradiated with 5 Gy on Days 4, 7 and 10. 5-FC was injected i.p. at 500 mg/kg on Days 0 to 4, 7 to 11, and 14 to 18. Data points represent the mean change in tumor surface area relative to Day 0 for each group of animals.
To assess anti-tumor effects on established solid tumors, D54MG glioma cells (2×10^7) were injected s.c. into female athymic nude mice. Treatment was started 14 days post-tumor cell injection at the time of established tumor growth (tumors were 6-8 mm in diameter), noted as Day 0. […] Tumor size was monitored twice a week with Vernier calipers. Tumor surface area (length×width in mm^2) was calculated for each group of 10 mice and plotted as a percentage change over time relative to the mean size on Day 0 for each group.
For orientation: Xenograft models place foreign cells or tissue in a host animal.

A further data set relates to ASPC-1. Put plainly: 5-FU toxicity, MTS assay. It is filed as cell-based. Particulars: Homo sapiens, ASPC1, 120 h, 5 days. The method, then: (§1) Tumor cells (5×10^4) were plated in 96 well plates and allowed to adhere overnight. Cells were then incubated continuously in the presence of increasing concentrations of 5-FU (0-200 μg/ml) and assayed for toxicity using an MTS assay (Promega, Madison Wis.) after 5-days. ICx values were calculated as previously described. U251MG glioma cells were as sensitive to 5-FU as LS174T and WiDR colon carcinoma cells, while D54MG, U87MG and U118MG glioma cells and AsPC-1 pancreatic carcinoma cells were 3-fold less sensitive (Table 2).

In the next data set the test system is BXPC-3. Put plainly: 5-FU toxicity, MTS assay. Particulars: Homo sapiens, 120 h, 5 days. It is filed as cell-based. On the procedure: as §1
The test system of the next data set is D54MG. Put plainly: 5-FU toxicity, MTS assay. The format is cell-based. Particulars: Homo sapiens, 120 h, 5 days. The method, then: as §1
For another data set, the system named is LS174T. Put plainly: 5-FU toxicity, MTS assay. It is filed as cell-based. The following applies: Homo sapiens, 120 h, 5 days. On the procedure:
as §1
Background: Tetrazolium assays rely on reduction of a dye to a coloured formazan, in cell work by metabolically active cells.

In another data set the test system is U118MG. Description: 5-FU toxicity, MTS assay. Particulars: Homo sapiens, U-118-MG, 120 h, 5 days. It is filed as cell-based. On the procedure:
as §1

The subject of a further data set is U251MG. Put plainly: 5-FU toxicity, MTS assay. The format is cell-based. The following applies: Homo sapiens, U-251, 120 h, 5 days. The method, then: as §1
The subject of another data set is U87MG. Put plainly: 5-FU toxicity, MTS assay. The format is cell-based. The following applies: Homo sapiens, U-87 MG, 120 h, 5 days. On the procedure: as §1
The next data set concerns WiDr. Description: 5-FU toxicity, MTS assay. It is filed as cell-based. The following applies: Homo sapiens, 120 h, 5 days. The method, then:
as §1

[3] abbreviates: Saline (no virus) + 5-FC, no XRT.

As usually defined, the IC20 is the point of the concentration-response curve where the effect stands at 20%. Read a low IC20 as greater potency. What is called IC50 is the concentration at which inhibition is half-maximal. Read a low IC50 as greater potency. As a reminder, the IC80 is the concentration needed for an effect of 80%. Higher therefore signals weaker potency.

≈ marks a conversion by molar mass, not a printed value.

Consider `Nc1nc(=O)[nH]cc1F` [5-FC, 5-fluorocytosine], for which the “5-FC MRS signal, % of its original intensity” value in [1] is 50%. In addition, the results for the “Survival 20%” value in [2] (Saline (no virus) + 5-FC + XRT) and in [2] (setting [3]) were 32 and 55, respectively. Also, the “Survival Median” value is recorded as 31 in data set [2] (Saline (no virus) + 5-FC + XRT) and 28 in data set [2] (setting [3]). Also, the “mean time to tumor doubling” value in the data set on D54MG xenografts (5-FC alone) came out at 13 days; in the data set on D54MG xenografts (5-FC plus radiation (3×2 Gy)) it was 15 days.
Regarding `O=c1[nH]cc(F)c(=O)[nH]1` [5-FU, 5-fluorouracil], in data set [1], the “5-FU MRS signal, % of the original 5-FC signal” value is on record as “approximately 40%”. The concentration for an effect of 20% (IC20) amounted to 0.04 µg/mL (≈ 0.308 µM) in the data set on ASPC-1; 0.01 µg/mL (≈ 0.0769 µM) in the data set with BXPC-3; 0.33 µg/mL (≈ 2.54 µM) in the data set with D54MG; 0.11 µg/mL (≈ 0.846 µM) in the data set with LS174T; 0.24 µg/mL (≈ 1.85 µM) with U118MG; 0.07 µg/mL (≈ 0.538 µM) in the data set on U251MG. For the same compound, the figures for the IC20 with U87MG and in the data set with WiDr were 0.37 µg/mL (≈ 2.84 µM) and 0.03 µg/mL (≈ 0.231 µM), respectively. Further, the IC50 was 1.58 µg/mL (≈ 12.1 µM) in the data set on ASPC-1; 0.04 µg/mL (≈ 0.308 µM) in the data set on BXPC-3; 1.1 µg/mL (≈ 8.46 µM) in the data set on D54MG; 0.3 µg/mL (≈ 2.31 µM) in the data set with LS174T; 1.06 µg/mL (≈ 8.15 µM) in the data set with U118MG; 0.38 µg/mL (≈ 2.92 µM) in the data set with U251MG. The values for the 50% inhibitory concentration (IC50) with U87MG and with WiDr were 1.06 µg/mL (≈ 8.15 µM) and 0.13 µg/mL (≈ 0.999 µM), respectively. In addition, the IC80 with ASPC-1 is 39.4 µg/mL (≈ 303 µM); in the data set with BXPC-3, 0.69 µg/mL (≈ 5.3 µM); in the data set on D54MG, 8.53 µg/mL (≈ 65.6 µM); with LS174T, 2.33 µg/mL (≈ 17.9 µM); in the data set on U118MG it was 61.5 µg/mL (≈ 473 µM); in the data set with U251MG, 3.81 µg/mL (≈ 29.3 µM). In addition, the IC80 amounted to 14 µg/mL (≈ 108 µM) with U87MG and 1.7 µg/mL (≈ 13.1 µM) in the data set on WiDr.

Source of the values: patent publication US20070225245A1, “Viral vector driven mutant bacterial cytosine deaminase gene and uses thereof” (priority 1998, published 2007).
